Laboratory results from patent US20250145652A1, “INORGANIC SALTS OF NICOTINAMIDE MONONUCLEOTIDE AS ANTI-AGING AGENTS” (Life Biosciences Inc., priority 2018, published 2025).

Tested on: COV434 cells
Assay: NAD cell assay (NAD cycling method), cellular NAD+ levels
Format: cell-based, human
Conditions: NAD levels in COV434 cells, 200 uM, 4 hr; for Fold increase compared to NMN: normalised to protein; for Fold Increase compared to NMN on a molar basis: mole per mole comparison of salt and parent
Method: NAD levels were assayed based on the NAD cycling method of Zhu and Rand, PLoS One (2012), herein incorporated by reference. COV434 cells were maintained in 6 well plates and treated with the indicated compounds at a concentration of 200 uM for 4 hr. Media was removed, plates were washed in cold PBS and cells were scraped down in NAD extraction buffer containing 10 mM nicotinamide, 50 mM Tris HCl, 0.1% Triton X-100. Cells were homogenised by sonication for 5 seconds, and samples were centrifuged at 7,000 g for 5 min at 4 degrees. Aliquots were taken for later protein assay, and samples were then passed through 10 kDa amicon filters at 14,000 g, 30 min at 4 degrees to remove proteins from the sample. Each sample was measured in technical triplicate, with 25 μL sample added to 100 μL ADH cycling mix (0.2 mg/ml alcohol dehydrogenase enzyme, 2% ethanol, 100 mM Tris pH 8.5). Samples were allowed to cycle for 10 min at room temperature, followed by 50 μL addition of an MTT/PMS solution (0.1 mM phenazine methosulfate, 0.8 mM 3-(4,5-Dimethylthiazol-2-yl)-2,5-diphenyltetrazolium bromide), 100 mM Tris-HCl pH 8.5). Plates were then incubated for 15 min and absorbance was measured at 570 nm. NAD concentrations were extrapolated from a standard curve, and normalised to protein concentrations determined by BCA protein assay.
The fold increase is obtained through a direct comparison on a mole per mole between the compared salt and its parent counterpart.

SMILES	Fold increase compared to NMN	Fold Increase compared to NMN on a molar basis
NC(=O)c1ccc[n+]([C@@H]2O[C@H](COP(=O)([O-])[O-])[C@@H](O)[C@H]2O)c1.[Na+] [Compound I-001, Sodium ((2R,3S,4R,5R)-5-(3-carbamoylpyridin-1-ium-1-yl)-3,4-dihydroxytetrahydrofuran-2-yl)methyl phosphate]	1.7	1.78
NC(=O)c1ccc[n+]([C@@H]2O[C@H](COP(=O)([O-])O)[C@@H](O)[C@H]2O)c1 [NMN, nicotinamide mononucleotide]	1.0	1.0
